Activity calls are given as the source filed them. The calls are words filed in the database; no cut-off is given here.
How the values were obtained:
Acetylcholinesterase [1] = target: T1, Acetylcholinesterase (Homo sapiens, UniProt P22303); test: Inhibition of human recombinant AChE using acetylthiocholine iodide as substrate up to 50 uM preincubated with enzyme for 20 mins prior to substrate addition by Ellman's method
Beta-secretase 1 = Beta-secretase 1 (Homo sapiens, UniProt P56817); test: Inhibition of human recombinant BACE1 using M-2420 as substrate preincubated with enzyme for 1 hr by FRET assay
Chain of Beta-secretase 1 (P56817 whole entry): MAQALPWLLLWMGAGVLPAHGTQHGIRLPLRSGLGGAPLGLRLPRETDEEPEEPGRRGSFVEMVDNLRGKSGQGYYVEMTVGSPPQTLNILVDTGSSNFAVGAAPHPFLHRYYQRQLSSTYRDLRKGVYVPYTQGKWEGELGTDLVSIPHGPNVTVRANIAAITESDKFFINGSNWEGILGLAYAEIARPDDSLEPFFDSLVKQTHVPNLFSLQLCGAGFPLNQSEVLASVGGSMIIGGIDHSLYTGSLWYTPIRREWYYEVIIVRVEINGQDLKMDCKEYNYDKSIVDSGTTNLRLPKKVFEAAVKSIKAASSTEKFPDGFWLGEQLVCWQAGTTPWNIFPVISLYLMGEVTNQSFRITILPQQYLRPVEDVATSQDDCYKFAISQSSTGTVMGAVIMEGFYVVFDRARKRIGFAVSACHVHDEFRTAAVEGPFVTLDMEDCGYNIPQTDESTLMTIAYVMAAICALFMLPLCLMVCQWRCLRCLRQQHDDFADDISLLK

[2] = (§1) Neurotoxicity against human SH-SY5Y cells assessed as inhibition of cell viability after 24 hrs by MTT assay; assay type: toxicity, cell-based; conditions: SH-SY5Y cells
Acetylcholinesterase [3] = target: T1, Acetylcholinesterase
Description: Inhibition of human recombinant AChE using acetylthiocholine iodide as substrate preincubated with enzyme for 20 mins prior to substrate addition by Ellman's method

SH-SY5Y = test: as §1; assay type: toxicity, cell-based; conditions: sh-sy5y, 24 h

T1 sequence (P22303 whole entry): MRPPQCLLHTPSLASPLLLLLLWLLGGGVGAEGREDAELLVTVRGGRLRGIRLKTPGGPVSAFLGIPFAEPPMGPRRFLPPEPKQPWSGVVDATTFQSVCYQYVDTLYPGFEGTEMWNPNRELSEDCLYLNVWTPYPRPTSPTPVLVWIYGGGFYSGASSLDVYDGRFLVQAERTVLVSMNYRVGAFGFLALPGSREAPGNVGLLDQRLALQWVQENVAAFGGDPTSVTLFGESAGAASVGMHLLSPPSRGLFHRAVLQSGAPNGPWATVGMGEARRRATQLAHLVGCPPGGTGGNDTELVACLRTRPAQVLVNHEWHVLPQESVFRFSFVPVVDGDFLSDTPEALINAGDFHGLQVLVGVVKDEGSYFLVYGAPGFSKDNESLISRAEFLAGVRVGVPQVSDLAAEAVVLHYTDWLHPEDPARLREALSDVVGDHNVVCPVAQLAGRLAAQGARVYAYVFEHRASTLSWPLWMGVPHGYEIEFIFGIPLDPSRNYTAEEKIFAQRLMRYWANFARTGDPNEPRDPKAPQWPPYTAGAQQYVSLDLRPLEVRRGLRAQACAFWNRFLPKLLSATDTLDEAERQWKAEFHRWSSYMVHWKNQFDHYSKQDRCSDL

SMILES	inhibition (Acetylcholinesterase [1])	IC50 (Beta-secretase 1)	further results
CN(Cc1ccccc1)Cc1ccc(/C=C2\Cc3ccc(OCCCCCN4CCC(=C(c5ccc(F)cc5)c5ccc(F)cc5)CC4)cc3C2=O)cc1	inactive	5.95 µM	
CN(Cc1ccccc1)Cc1ccc(/C=C2\Cc3ccc(OCCCCCN4CCCCC4)cc3C2=O)cc1			IC50 at 24 h [2]: 23.3 µM
CN(Cc1ccccc1)Cc1ccc(/C=C2\Cc3ccc(OCCCCCN4CCN(c5ccccc5)CC4)cc3C2=O)cc1	inactive	11.7 µM	
CN(Cc1ccccc1)Cc1ccc(/C=C2\Cc3ccc(OCCCCCN4CCC(c5ccccc5)CC4)cc3C2=O)cc1		13.4 µM	IC50 (Acetylcholinesterase [3]): 62 µM
CN(Cc1ccccc1)Cc1ccc(/C=C2\Cc3ccc(OCCCCCN4CCC(n5c(=O)[nH]c6ccccc65)CC4)cc3C2=O)cc1	inactive		
CN(Cc1ccccc1)Cc1ccc(/C=C2\Cc3ccc(OCCCCCN4CCN(Cc5ccc(F)cc5)CC4)cc3C2=O)cc1	inactive		
CN(Cc1ccccc1)Cc1ccc(/C=C2\Cc3ccc(OCCCCCN4CCN(C(c5ccc(F)cc5)c5ccc(F)cc5)CC4)cc3C2=O)cc1	inactive	2.49 µM	Activity (SH-SY5Y): Non-toxic
CN(Cc1ccccc1)Cc1ccc(/C=C2\CCc3cc(OCCCCCN4CCN(Cc5ccc(F)cc5)CC4)ccc3C2=O)cc1			IC50 (Acetylcholinesterase [3]): 7.83 µM
CN(Cc1ccccc1)Cc1ccc(/C=C2\Cc3ccc(OCCCCCN4CCN(OC(=O)C(C)(C)C)CC4)cc3C2=O)cc1	inactive	3.21 µM	Activity (SH-SY5Y): Non-toxic
CCOC(=O)C1(c2ccccc2)CCN(CCCCCOc2ccc3c(c2)C(=O)/C(=C/c2ccc(CN(C)Cc4ccccc4)cc2)C3)CC1	inactive	8.23 µM	
CN(Cc1ccccc1)Cc1ccc(/C=C2\CCc3cc(OCCCCCN4CCN(C(c5ccc(F)cc5)c5ccc(F)cc5)CC4)ccc3C2=O)cc1	inactive		

Source: ChEMBL document CHEMBL3596160, “From AChE to BACE1 inhibitors: The role of the amine on the indanone scaffold” (Bioorg Med Chem Lett, 2015)
